# Where “and” joins values, the source holds several entries; their conditions need not be identical. Identical values can stand only once. Calls of active or inactive are those of the source.
# Legend:
# Cytochrome P450 3A4 = Cytochrome P450 3A4 (Homo sapiens, UniProt P08684); details: Potency;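 note: confirmatory qHTS run detecting inhibitors and substrates of CYP3A4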
# Coagulation factor XII = biological target: T1, Coagulation factor XII (Homo sapiens, UniProt P00748); type: functional;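 note: activated factor XIIa alpha cleaving a fluorogenic AMC peptide substrate; inhibitor potency from loss of enzyme activity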
# T1 sequence (P00748 whole entry): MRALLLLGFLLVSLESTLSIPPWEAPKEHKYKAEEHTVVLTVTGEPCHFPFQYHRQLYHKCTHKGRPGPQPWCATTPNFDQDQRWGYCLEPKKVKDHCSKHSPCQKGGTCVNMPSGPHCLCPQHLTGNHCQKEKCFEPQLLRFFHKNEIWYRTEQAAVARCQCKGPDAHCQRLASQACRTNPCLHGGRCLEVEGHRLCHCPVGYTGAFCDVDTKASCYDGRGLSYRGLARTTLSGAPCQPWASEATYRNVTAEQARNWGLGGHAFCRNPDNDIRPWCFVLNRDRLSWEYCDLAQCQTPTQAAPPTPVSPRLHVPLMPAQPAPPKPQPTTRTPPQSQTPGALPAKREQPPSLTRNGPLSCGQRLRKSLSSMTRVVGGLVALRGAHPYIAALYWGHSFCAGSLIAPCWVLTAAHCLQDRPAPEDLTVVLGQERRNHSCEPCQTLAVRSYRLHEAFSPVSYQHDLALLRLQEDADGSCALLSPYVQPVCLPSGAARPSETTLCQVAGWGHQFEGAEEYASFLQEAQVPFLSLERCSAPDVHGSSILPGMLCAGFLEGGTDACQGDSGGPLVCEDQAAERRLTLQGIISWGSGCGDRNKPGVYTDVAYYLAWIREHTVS
# [1] = biological target: Glyceraldehyde-3-phosphate dehydrogenase (Homo sapiens, UniProt P04406)
# [2] = biological target: T2, Alkaline phosphatase, tissue-nonspecific isozyme (Homo sapiens, UniProt P05186); assay: human TNAP enzyme inhibitors, SAR follow-up, biochemical, luminescent, dose response (AID 1056)
# T2 sequence (P05186 whole entry): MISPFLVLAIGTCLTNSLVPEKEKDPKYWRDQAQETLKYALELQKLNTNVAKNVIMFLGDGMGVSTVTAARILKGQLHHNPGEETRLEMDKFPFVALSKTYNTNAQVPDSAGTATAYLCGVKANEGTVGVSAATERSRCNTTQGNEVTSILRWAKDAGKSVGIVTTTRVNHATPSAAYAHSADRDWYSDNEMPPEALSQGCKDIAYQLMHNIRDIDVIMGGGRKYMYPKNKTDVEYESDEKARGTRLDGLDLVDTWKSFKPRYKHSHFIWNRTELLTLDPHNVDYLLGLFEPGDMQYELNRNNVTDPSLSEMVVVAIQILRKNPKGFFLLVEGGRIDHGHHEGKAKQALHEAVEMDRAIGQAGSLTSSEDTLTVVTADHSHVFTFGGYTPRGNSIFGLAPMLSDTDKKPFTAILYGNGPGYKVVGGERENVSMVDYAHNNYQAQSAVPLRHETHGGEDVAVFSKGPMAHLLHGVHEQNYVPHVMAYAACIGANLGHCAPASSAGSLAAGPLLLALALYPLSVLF
# [3] = biological target: G-protein coupled receptor 55 (Homo sapiens, UniProt Q9Y2T6); assay: GPR55 antagonists blocking LPI-driven arrestin recruitment, primary screen, imaging, U2OS, beta-arrestin-GFP, LPI agonist (AID 2013); type: functional;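 note: antagonist potency measured as reduced agonist-driven arrestin aggregation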
# [4] = Luminescent dose response cell-based high throughput screening assay for inhibitors of the Janus kinase 2 mutant JAK2V617F. [Related pubchem assays: 1446 (Primary screen.), 1521 (Confirmation assay.), 1486 (Counter screen.)]; type: functional
# [5] = biological target: T3, Heat shock factor protein 1 (Mus musculus, UniProt P38532); assay: inhibition of MG132-induced HSE-luciferase signal, confirmation, cell-based, NIH3T3, luminescence, dose retest (AID 2382); type: functional;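 note: NIH3T3 fibroblasts with HSF1-driven luciferase reporter stressed by proteasome inhibitor MG132; luminescence from HSF1-driven luciferase expression after 8 hours of MG132 stress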
# T3 sequence (P38532 whole entry): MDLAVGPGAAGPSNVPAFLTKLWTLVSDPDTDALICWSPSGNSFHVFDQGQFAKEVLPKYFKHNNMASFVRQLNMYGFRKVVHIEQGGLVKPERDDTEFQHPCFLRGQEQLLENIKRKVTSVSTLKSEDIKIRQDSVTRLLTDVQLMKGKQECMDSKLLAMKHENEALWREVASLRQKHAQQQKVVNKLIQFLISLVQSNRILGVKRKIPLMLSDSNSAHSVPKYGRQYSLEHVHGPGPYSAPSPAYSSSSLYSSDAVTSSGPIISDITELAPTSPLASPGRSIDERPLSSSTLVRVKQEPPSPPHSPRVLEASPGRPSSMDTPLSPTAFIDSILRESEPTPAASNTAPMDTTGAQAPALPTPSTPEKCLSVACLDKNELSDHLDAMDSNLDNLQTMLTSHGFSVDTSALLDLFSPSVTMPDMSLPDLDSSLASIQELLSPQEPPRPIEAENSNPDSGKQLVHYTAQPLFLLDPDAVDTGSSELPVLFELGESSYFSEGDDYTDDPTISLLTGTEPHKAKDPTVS
# Protein RecA = biological target: T4, Protein RecA (Mycobacterium tuberculosis, UniProt P9WHJ3); assay: Fluorescence Cell-Free Homogeneous Dose Retest to Identify Inhibitors of RecA-Intein Splicing Activity. [Related pubchem assays (depositor defined):AID2097, AID2223, AID489010, AID492950]; type: functional
# T4 sequence (P9WHJ3 whole entry): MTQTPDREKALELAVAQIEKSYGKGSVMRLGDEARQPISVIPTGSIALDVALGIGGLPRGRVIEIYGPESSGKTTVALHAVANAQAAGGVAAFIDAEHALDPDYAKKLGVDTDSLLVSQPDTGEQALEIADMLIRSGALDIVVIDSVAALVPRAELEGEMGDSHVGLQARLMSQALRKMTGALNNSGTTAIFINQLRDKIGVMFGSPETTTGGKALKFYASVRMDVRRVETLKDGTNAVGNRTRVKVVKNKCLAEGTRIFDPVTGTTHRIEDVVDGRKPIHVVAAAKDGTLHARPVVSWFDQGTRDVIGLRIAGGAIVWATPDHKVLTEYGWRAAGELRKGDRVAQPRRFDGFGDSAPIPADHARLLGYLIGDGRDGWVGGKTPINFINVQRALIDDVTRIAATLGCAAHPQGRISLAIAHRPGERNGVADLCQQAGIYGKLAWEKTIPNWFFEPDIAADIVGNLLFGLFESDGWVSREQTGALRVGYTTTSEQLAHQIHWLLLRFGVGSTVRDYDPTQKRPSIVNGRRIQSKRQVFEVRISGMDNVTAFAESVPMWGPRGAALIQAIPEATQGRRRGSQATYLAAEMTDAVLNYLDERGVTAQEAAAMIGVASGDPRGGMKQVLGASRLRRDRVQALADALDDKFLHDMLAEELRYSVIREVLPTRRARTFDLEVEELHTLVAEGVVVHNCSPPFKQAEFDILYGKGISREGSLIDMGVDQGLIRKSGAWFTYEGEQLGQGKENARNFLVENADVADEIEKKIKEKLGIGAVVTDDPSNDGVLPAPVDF
# [6] = Luminescence Cell-Based Dose Confirmation HTS to Identify Activators of 5'UTR Stem-Loop Driven Alpha-Synuclein mRNA Translation in H4 Neuroglioblastoma Cells. [Related pubchem assays: 1829 (Project Summary), 1814 (Primary HTS)]; type: functional
# [7] = Luminescence Cell-Based Dose Response HTS to Identify Activators of Luciferase Translation or Activity in H4 […] Cells. [Related pubchem assays: 1829 (Project Summary), 1814 (Primary HTS)]; type: functional
# H4 = assay: Luminescence Cell-Based Dose Response HTS to Identify Activators of 5'UTR Stem-Loop Driven Prion Protein mRNA Translation in H4 Neuroglioblastoma Cells. [Related pubchem assays: 1829 (Project Summary), 1814 (Primary HTS)]; type: functional; details: Homo sapiens
# Aminopeptidase N = biological target: T5, Aminopeptidase N (Plasmodium falciparum FcB1/Columbia, UniProt O96935); assay: P. falciparum M1AAP inhibitors, biochemical, fluorogenic H-Leu-NHMec substrate, 1536-well (AID 1445); set-up: species or system Plasmodium falciparum 3D7, 3D7
# T5 sequence (O96935 whole entry): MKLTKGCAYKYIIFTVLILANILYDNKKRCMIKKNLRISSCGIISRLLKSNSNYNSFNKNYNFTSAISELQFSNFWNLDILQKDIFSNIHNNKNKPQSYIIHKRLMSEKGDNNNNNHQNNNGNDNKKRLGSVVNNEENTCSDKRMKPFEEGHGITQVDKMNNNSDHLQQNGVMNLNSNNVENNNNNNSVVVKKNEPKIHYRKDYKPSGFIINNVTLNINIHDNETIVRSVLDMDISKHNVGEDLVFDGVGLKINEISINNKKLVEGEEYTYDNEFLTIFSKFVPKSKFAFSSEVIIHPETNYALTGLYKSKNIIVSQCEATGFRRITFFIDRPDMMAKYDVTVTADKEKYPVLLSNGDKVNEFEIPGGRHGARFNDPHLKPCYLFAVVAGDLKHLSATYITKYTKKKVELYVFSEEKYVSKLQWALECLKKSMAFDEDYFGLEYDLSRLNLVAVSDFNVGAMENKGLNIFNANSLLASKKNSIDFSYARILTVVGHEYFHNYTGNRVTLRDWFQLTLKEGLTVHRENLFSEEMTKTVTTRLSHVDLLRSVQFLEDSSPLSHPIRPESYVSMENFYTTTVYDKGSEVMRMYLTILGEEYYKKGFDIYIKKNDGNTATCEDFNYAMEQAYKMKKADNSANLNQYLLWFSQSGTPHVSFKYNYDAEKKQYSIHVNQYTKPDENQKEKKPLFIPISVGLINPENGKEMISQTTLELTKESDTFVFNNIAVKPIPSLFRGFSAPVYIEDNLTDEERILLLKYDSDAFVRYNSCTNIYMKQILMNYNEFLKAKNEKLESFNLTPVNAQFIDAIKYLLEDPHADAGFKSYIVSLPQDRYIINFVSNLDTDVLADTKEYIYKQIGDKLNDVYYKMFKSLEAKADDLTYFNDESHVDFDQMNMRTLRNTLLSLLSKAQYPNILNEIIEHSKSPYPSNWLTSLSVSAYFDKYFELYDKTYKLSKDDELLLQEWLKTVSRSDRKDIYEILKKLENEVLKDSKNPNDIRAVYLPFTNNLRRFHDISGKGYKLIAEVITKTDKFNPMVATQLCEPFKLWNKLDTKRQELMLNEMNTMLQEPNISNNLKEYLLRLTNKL
# [8] = Luminescence Cell-Based Dose Retest to Confirm Inhibitors of Cancer Stem Cells. [Related pubchem assays (depositor defined):AID2717, AID2721]; type: functional; details: Homo sapiens
# [9] = biological target: T6, Microphthalmia-associated transcription factor (Homo sapiens, UniProt O75030); assay: TRPM1 promoter luciferase signal decrease, dose response, MITF inhibitor project, cell-based, SK-MEL-5, cherry-picked, set 3 (AID 493073); type: functional
# T6 sequence (O75030 whole entry): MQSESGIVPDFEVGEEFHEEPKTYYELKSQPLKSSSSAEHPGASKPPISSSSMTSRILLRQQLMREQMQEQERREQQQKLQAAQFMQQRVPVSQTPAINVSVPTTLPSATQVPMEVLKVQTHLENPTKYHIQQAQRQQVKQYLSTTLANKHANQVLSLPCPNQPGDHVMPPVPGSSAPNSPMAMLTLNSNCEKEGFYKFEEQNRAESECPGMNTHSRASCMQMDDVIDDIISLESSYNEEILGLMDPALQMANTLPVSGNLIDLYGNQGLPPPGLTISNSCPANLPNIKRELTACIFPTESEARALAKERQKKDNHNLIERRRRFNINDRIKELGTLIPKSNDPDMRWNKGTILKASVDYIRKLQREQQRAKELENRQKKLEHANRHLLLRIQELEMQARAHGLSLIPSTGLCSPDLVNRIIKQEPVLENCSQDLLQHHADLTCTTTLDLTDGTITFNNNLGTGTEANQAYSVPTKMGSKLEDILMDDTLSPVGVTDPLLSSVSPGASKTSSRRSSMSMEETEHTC
# Chain of G-protein coupled receptor 55 (Q9Y2T6 whole entry): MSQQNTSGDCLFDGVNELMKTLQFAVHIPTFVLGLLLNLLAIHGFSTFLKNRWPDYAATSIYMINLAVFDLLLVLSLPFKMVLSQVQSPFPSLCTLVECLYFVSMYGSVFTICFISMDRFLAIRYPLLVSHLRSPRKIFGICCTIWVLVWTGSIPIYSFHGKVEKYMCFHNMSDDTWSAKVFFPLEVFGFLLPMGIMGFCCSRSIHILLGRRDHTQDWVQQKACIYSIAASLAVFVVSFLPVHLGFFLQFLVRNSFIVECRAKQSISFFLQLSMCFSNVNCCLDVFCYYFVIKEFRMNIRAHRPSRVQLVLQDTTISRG
# Chain of Cytochrome P450 3A4 (P08684 whole entry): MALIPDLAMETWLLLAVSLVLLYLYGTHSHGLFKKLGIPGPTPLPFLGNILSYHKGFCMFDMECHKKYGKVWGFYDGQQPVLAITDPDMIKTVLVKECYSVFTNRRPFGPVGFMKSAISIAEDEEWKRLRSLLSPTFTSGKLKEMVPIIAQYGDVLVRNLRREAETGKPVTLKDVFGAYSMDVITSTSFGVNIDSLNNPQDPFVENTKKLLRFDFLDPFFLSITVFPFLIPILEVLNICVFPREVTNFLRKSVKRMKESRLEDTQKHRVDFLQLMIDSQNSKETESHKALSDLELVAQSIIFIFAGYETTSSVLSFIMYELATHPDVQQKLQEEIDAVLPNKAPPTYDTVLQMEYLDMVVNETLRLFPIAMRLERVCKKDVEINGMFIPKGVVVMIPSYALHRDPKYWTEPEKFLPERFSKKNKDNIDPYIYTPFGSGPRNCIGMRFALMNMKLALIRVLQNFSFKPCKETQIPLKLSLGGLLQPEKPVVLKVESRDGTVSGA
# Chain of Glyceraldehyde-3-phosphate dehydrogenase (P04406 whole entry): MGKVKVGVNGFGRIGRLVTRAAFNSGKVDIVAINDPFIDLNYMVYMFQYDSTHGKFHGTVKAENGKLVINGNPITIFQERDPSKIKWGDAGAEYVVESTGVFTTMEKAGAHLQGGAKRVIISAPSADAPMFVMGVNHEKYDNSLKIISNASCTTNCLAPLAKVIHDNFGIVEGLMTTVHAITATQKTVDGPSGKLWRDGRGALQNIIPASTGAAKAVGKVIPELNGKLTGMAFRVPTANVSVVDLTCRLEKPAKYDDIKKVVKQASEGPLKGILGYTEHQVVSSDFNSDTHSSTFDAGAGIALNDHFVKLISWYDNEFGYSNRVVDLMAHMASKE
smiles,measurement,setting,value
CNNC,AC50,Cytochrome P450 3A4,31.6 µM (inconclusive)
Oc1c2nc3cccc(Cl)c3c-2ncn1CCN1CCCCC1,IC50,Coagulation factor XII,> 50 µM (inactive)
Cn1c(-c2ccccc2)cnc1SCC(N)=O,IC50,Coagulation factor XII,> 50 µM (inactive)
C=C(C)C(O)/C=C/c1ccccc1OC (stereo not given),AC50,Cytochrome P450 3A4,2.51 µM (inconclusive)
COc1ccccc1NC(=O)CSc1nnnn1C,IC50,Coagulation factor XII,> 50 µM (inactive)
NCc1cc(-c2cccnc2)n[nH]1,IC50,[1],> 100 µM (not active)
same,IC50,[2],> 100 µM (inactive)
O=C(Nc1ccccc1N1CCCCC1)c1ccc(N2C(=O)c3ccccc3C2=O)cc1,IC50,[3],1.99 µM (active)
O=C(CCl)N(C/C=C/c1ccccc1)c1ccc2c(c1)OCCO2,IC50,[4],0.605 µM (active)
same,EC50,[5],1.67 µM (active)
same,EC50,Protein RecA,0.356 µM (active)
COC(=O)c1ccc(C23CC4(C2)[C@H](CN(C)[C@@H]4c2ccccc2)C3c2ccc(C(F)(F)F)cc2)cc1 (stereo not given in full),AC50,Cytochrome P450 3A4,15.8 µM (inconclusive)
COc1ccc(OC)c(NS(=O)(=O)c2ccc(SC)cc2)c1,IC50,[4],3.35 µM (active)
same,EC50,[6],> 120 µM (not active)
same,EC50,[7],6.98 µM (active)
same,EC50,H4,44.8 µM (active)
NS(=O)(=O)c1ccc(CCNC(=O)COC(=O)CCSc2ccc(Cl)cc2)cc1,IC50,Aminopeptidase N,46.8 µM (active)
CCCN1[C@H](C(=O)OC)C[C@@H]2CC[C@@H](O)C[C@@H]21,AC50,Cytochrome P450 3A4,15.8 µM (inconclusive)
CCOC(=O)C1=C(Nc2ccc(OC)cc2)S/C(=C\c2ccc(OCC(=O)O)c(OC)c2)C1=O,IC50,Aminopeptidase N,87.3 µM (active)
COC(=O)[C@@H]1C[C@@H]2CC[C@@H](O)C[C@@H]2N1Cc1ccc(N2CCOCC2)cc1,AC50,Cytochrome P450 3A4,3.98 µM (inconclusive)
CCCCc1cc(=O)oc2cc(C)cc(OCc3nn[nH]n3)c12,IC50,Aminopeptidase N,63.6 µM (active)
O=S(=O)(Nc1ccc2ccccc2c1)c1cc(Cl)ccc1Cl,IC50,[1],> 100 µM (not active)
same,IC50,[2],> 100 µM (inactive) and > 10 µM (inactive)
CC(C)(C)C(=O)N1N=C(Nc2ccccc2)SC1(C)C,IC50,Coagulation factor XII,> 50 µM (inactive)
CN(CC(O)CON=C1c2ccccc2-c2ccccc21)S(=O)(=O)c1ccc(Br)cc1 (stereo not given),IC50,[3],2.14 µM (active)
same,AC50,[8],4.11 µM (active)
CC(C)CN=C(NS(=O)(=O)c1ccccc1)C(Cl)(Cl)Cl,EC50,[5],7.41 µM (active)
same,IC50,[3],2.02 µM (active)
same,AC50,[8],2.15 µM (active)
same,AC50,[9],11.1 µM (active)
